In the data set the test system is CCRIS mutagenicity, Ames/micronucleus/aberration tests. As to the kind of experiment: CCRIS mutagenicity studies.
The mark [1] stands for this setting: Test System: AMES SALMONELLA TYPHIMURIUM, Strain/Indicator: TA98, Metabolic Activation: NONE, Method: PREINCUBATION
Setting [2] is: Test System: AMES SALMONELLA TYPHIMURIUM, Strain/Indicator: TA100, Metabolic Activation: NONE, Method: PREINCUBATION
Setting [3] is: Test System: AMES SALMONELLA TYPHIMURIUM, Strain/Indicator: TA100, Metabolic Activation: NONE, Method: STANDARD PLATE.
Where [4] appears, read: Test System: AMES SALMONELLA TYPHIMURIUM, Strain/Indicator: TA100, Metabolic Activation: RAT, LIVER, S-9, AROCLOR 1254, Method: STANDARD PLATE.
Where [5] appears, read: Test System: AMES SALMONELLA TYPHIMURIUM, Strain/Indicator: TA98, Metabolic Activation: NONE, Method: STANDARD PLATE.

The source made the active and inactive calls. The rule behind the calls is not given here.

For the molecule `N#CC1=C(C#N)C(=O)C(Cl)=C(Cl)C1=O`, the mutagenic call reads like this: under setting [1], “inactive; negative”; (Test System: AMES SALMONELLA TYPHIMURIUM, Strain/Indicator: TA98, Metabolic Activation: RAT, LIVER, S-9, PHENOBARBITAL AND 5,6-BENZOFLAVONE, Method: PREINCUBATION) “inactive; negative”; under setting [2], “inactive; negative”; (Test System: AMES SALMONELLA TYPHIMURIUM, Strain/Indicator: TA102, Metabolic Activation: NONE, Method: PREINCUBATION) “inactive; negative”; (Test System: AMES SALMONELLA TYPHIMURIUM, Strain/Indicator: TA102, Metabolic Activation: RAT, LIVER, S-9, PHENOBARBITAL AND 5,6-BENZOFLAVONE, Method: PREINCUBATION) “inactive; negative”; (Test System: AMES SALMONELLA TYPHIMURIUM, Strain/Indicator: TA104, Metabolic Activation: NONE, Method: PREINCUBATION) “active; positive”. Moreover, the mutagenic call was “active; positive” (Test System: AMES SALMONELLA TYPHIMURIUM, Strain/Indicator: TA104, Metabolic Activation: RAT, LIVER, S-9, PHENOBARBITAL AND 5,6-BENZOFLAVONE, Method: PREINCUBATION); “inactive; negative” (Test System: AMES SALMONELLA TYPHIMURIUM, Strain/Indicator: TA2637, Metabolic Activation: NONE, Method: PREINCUBATION); “active; positive” (Test System: AMES SALMONELLA TYPHIMURIUM, Strain/Indicator: TA2637, Metabolic Activation: RAT, LIVER, S-9, PHENOBARBITAL AND 5,6-BENZOFLAVONE, Method: PREINCUBATION).
Regarding `CCc1nc(N)nc(N)c1-c1ccc(Cl)cc1`, the mutagenic call reads like this: (End Point: IN VITRO CHROMOSOMAL ABERRATIONS, Test System: HUMAN LYMPHOCYTES, Metabolic Activation: NONE) “active; positive”; (End Point: IN VITRO MICRONUCLEUS, Test System: HAMSTER V79 CELLS, Metabolic Activation: NONE) “inactive; negative”; (End Point: In vivo chromosomal aberrations, Species: Mouse, Strain/Sex: Swiss/Male, Route: Intraperitoneal) “active; positive (at highest dose only)”; (End Point: In vivo chromosomal aberrations, Test System: Bone marrow cells, Species: Mouse, Strain/Sex: Swiss/Male, Route: Intraperitoneal) “active; positive (chromatid breaks and acentric fragments)”; (End Point: In vivo chromosomal aberrations, Test System: Spermatocytes, Species: Mouse, Strain/Sex: Swiss/Male, Route: Intraperitoneal) “active; positive (at highest dose only)”; (Test System: E.COLI, Strain/Indicator: WP2UVRA/PKM101, Metabolic Activation: NONE, Method: PREINCUBATION) “inactive; negative”. The mutagenic call (Test System: E.COLI, Strain/Indicator: WP2UVRA/PKM101, Metabolic Activation: RAT LIVER S-9, PHENOBARBITAL AND 5,6-BENZOFLAVONE, Method: PREINCUBATION) is “inactive; negative”.
Take `CC(=O)Oc1ccc2c(CBr)cc(=O)oc2c1`: the mutagenic call was “inactive; negative” under setting [1]; “inactive; negative” (Test System: AMES SALMONELLA TYPHIMURIUM, Strain/Indicator: TA98, Metabolic Activation: RAT, LIVER, S-9, PCB, Method: PREINCUBATION); “inactive; negative” under setting [2]; “inactive; negative” (Test System: AMES SALMONELLA TYPHIMURIUM, Strain/Indicator: TA100, Metabolic Activation: RAT, LIVER, S-9, PCB, Method: PREINCUBATION); “inactive; negative” (Test System: E. COLI, Strain/Indicator: WP2 UVRA, Metabolic Activation: NONE, Method: PREINCUBATION).
`CC(=O)Nc1ccc(/C=C/c2ccccc2)cc1`: the mutagenic call was “inactive; negative” (Test System: CHINESE HAMSTER OVARY, Strain/Indicator: AS52/6-THIOGUANINE, Metabolic Activation: NONE) and “active; positive” (Test System: CHINESE HAMSTER OVARY, Strain/Indicator: AS52/6-THIOGUANINE, Metabolic Activation: RAT LIVER S-9, 2-ACETYLAMINOFLUORENE).
On to `O=C(OCCBr)[C@@H](O)[C@H](O)C(=O)OCCBr`, for which the mutagenic call is, setting by setting: under setting [3], “active; positive”; under setting [4], “active; positive”.
For `ONc1ncnc2nc[nH]c12`, the mutagenic call (Test System: AMES SALMONELLA TYPHIMURIUM, Strain/Indicator: HISG46, Metabolic Activation: NONE, Method: STANDARD PLATE) was “active; positive”; the mutagenic call (Test System: AMES SALMONELLA TYPHIMURIUM, Strain/Indicator: TA97, Metabolic Activation: NONE, Method: STANDARD PLATE) is “active; positive”; the mutagenic call (Test System: AMES SALMONELLA TYPHIMURIUM, Strain/Indicator: TA97, Metabolic Activation: RAT, LIVER, S-9, AROCLOR 1254, Method: STANDARD PLATE) is “inactive; negative”; the mutagenic call under setting [5] is “inactive; negative”; the mutagenic call (Test System: AMES SALMONELLA TYPHIMURIUM, Strain/Indicator: TA100(TN5-1,8-DNP1011), Metabolic Activation: NONE, Method: STANDARD PLATE) is “active; positive”; the mutagenic call (Test System: AMES SALMONELLA TYPHIMURIUM, Strain/Indicator: TA100(TN5-1,8-DNP1012), Metabolic Activation: NONE, Method: STANDARD PLATE) was “active; positive”. Besides, the mutagenic call is, setting by setting: under setting [4], “inactive; negative”; (Test System: AMES SALMONELLA TYPHIMURIUM, Strain/Indicator: TA1950, Metabolic Activation: NONE, Method: STANDARD PLATE) “active; positive”; (Test System: E.COLI, Strain/Indicator: CM871, Metabolic Activation: NONE, Method: STANDARD PLATE) “active; positive”; (Test System: E.COLI, Strain/Indicator: WP2, Metabolic Activation: NONE, Method: STANDARD PLATE) “active; positive”.
Consider `Cc1cnc2ccc3c(nc(N[C@@H]4O[C@H](C(=O)O)[C@@H](O)[C@H](O)[C@H]4O)n3C)c2n1`, for which the mutagenic call under setting [1] was “inactive; negative” and the mutagenic call (Test System: AMES SALMONELLA TYPHIMURIUM, Strain/Indicator: TA98, Metabolic Activation: RAT, LIVER, S-9, AROCLOR 1254, Method: PREINCUBATION) is “inactive; negative”.
Consider `CCO[Si](C)(OCC)OCC`, for which the mutagenic call runs as follows: under setting [5], “inactive; negative”; (Test System: AMES SALMONELLA TYPHIMURIUM, Strain/Indicator: TA98, Metabolic Activation: RAT LIVER S-9, AROCLOR 1254, Method: STANDARD PLATE) “inactive; negative”; under setting [3], “inactive; negative”; (Test System: AMES SALMONELLA TYPHIMURIUM, Strain/Indicator: TA100, Metabolic Activation: RAT LIVER S-9, AROCLOR 1254, Method: STANDARD PLATE) “inactive; negative”; (Test System: AMES SALMONELLA TYPHIMURIUM, Strain/Indicator: TA1535, Metabolic Activation: NONE, Method: STANDARD PLATE) “inactive; negative”; (Test System: AMES SALMONELLA TYPHIMURIUM, Strain/Indicator: TA1535, Metabolic Activation: RAT LIVER S-9, AROCLOR 1254, Method: STANDARD PLATE) “inactive; negative”. The mutagenic call reads like this: (Test System: AMES SALMONELLA TYPHIMURIUM, Strain/Indicator: TA1537, Metabolic Activation: NONE, Method: STANDARD PLATE) “inactive; negative”; (Test System: AMES SALMONELLA TYPHIMURIUM, Strain/Indicator: TA1537, Metabolic Activation: RAT LIVER S-9, AROCLOR 1254, Method: STANDARD PLATE) “inactive; negative”; (Test System: AMES SALMONELLA TYPHIMURIUM, Strain/Indicator: TA1538, Metabolic Activation: NONE, Method: STANDARD PLATE) “inactive; negative”; (Test System: AMES SALMONELLA TYPHIMURIUM, Strain/Indicator: TA1538, Metabolic Activation: RAT LIVER S-9, AROCLOR 1254, Method: STANDARD PLATE) “inactive; negative”; (Test System: E. COLI, Strain/Indicator: P3078 POLA, Metabolic Activation: NONE, Method: SPOT TEST) “inactive; negative”; (Test System: E. COLI, Strain/Indicator: P3078 POLA, Metabolic Activation: RAT LIVER S-9, AROCLOR 1254, Method: SPOT TEST) “inactive; negative”. Besides, the mutagenic call (Test System: E. COLI, Strain/Indicator: W3110, Metabolic Activation: NONE, Method: SPOT TEST) is “inactive; negative”; the mutagenic call (Test System: E. COLI, Strain/Indicator: W3110, Metabolic Activation: RAT LIVER S-9, AROCLOR 1254, Method: SPOT TEST) is “inactive; negative”; the mutagenic call (Test System: MOUSE LYMPHOMA, Strain/Indicator: L5178Y (TK+/TK-), Metabolic Activation: NONE, Method: SUSPENSION/PLATE) is “inactive; negative”; the mutagenic call (Test System: MOUSE LYMPHOMA, Strain/Indicator: L5178Y (TK+/TK-), Metabolic Activation: RAT, LIVER, S-9, Method: SUSPENSION/PLATE) was “inactive; negative”.
